Experimental data taken from patent publication US9771369B2, “Compounds and methods for kinase modulation, and indications therefor” (Plexxikon Inc., priority 2014, dated 2017).
pIC50: −log10 of the molar value.

Tests used:
[1] = biological target: c-Kit kinase (Homo sapiens (Human), UniProt P10721); assay: c-Kit biochemical assay (AlphaScreen kinase activity)
Protocol: Assays for biochemical cell-based activity of c-kit kinase are known in the art, for example, as described in U.S. Pat. Nos. 7,498,342 and 7,846,941, the disclosures of which are hereby incorporated by reference as it relates to such assays. The c-kit (or kinase domain thereof) is an active kinase in AlphaScreen. IC50 values are determined with respect to inhibition of c-Kit kinase activity, where inhibition of phosphorylation of a peptide substrate is measured as a function of compound concentration. Compounds to be tested were dissolved in DMSO to a concentration of 30 mM. These were diluted 30 μl into 130 μl of DMSO (4 mM) and 1 μl was added to an assay plate. These were then serially diluted 1:3 (50 μl to 100 μl DMSO) for a total of 8 points. Plates were prepared such that each kinase reaction is 30 μl in 1× kinase buffer (50 mM HEPES, pH 7.2, 5 mM MgCl2, 5 mM MnCl2, 0.01% NP-40, 0.2% BSA), 5% DMSO and 10 μM ATP. Substrate was 100 nM biotin-(E4Y)3 (Open Source Biotech, Inc.). C-kit kinase was at 0.1 ng per sample. After incubation of the kinase reaction for 1 hour at room temperature, 5 μl of donor beads (Streptavidin coated beads (Perkin Elmer Life Science) final concentration 1 μg/ml) in stop buffer (50 mM EDTA in 1× kinase buffer) was added, the sample was mixed and incubated for 30 minutes at room temperature before adding […] of acceptor beads (PY30 coated beads (Perkin Elmer Life Science) final concentration 1 μg/ml) in stop buffer. The samples were incubated for 60 minutes at room temperature and the signal per well was read on AlphaQuest reader. Phosphorylated substrate results in binding of the PY30 antibody and association of the donor and acceptor beads such that signal correlates with kinase activity. The signal vs. compound concentration was used to determine the IC50.
Compounds were also tested using a similar assay with a 10-fold higher ATP concentration. For these samples, compounds to be tested were dissolved in DMSO to a concentration of 30 mM. These were diluted 30 μl into 130 μl of DMSO (4 mM) and 1 μl was added to an assay plate. These were then serially diluted 1:3 (50 μl to 100 μl DMSO) for a total of 8 points. Plates were prepared such that each kinase reaction is 30 μl in 1× kinase buffer (25 mM HEPES, pH 7.5, 2 mM MgCl2, 2 mM MnCl2, 0.01% […], 1 mM DTT, and 0.001% BSA), 5% DMSO and 100 μM ATP. Substrate was 30 nM biotin-(E4Y)10 (Upstate Biotech, Cat#12-440). C-kit kinase was at 1 ng per sample. After incubation of the kinase reaction for 1 hour at room temperature, 5 μl of donor beads (Streptavidin coated beads (Perkin Elmer Life Science) final concentration 10 μg/ml) in stop buffer (25 mM HEPES pH 7.5, 100 mM EDTA, 0.3% BSA) was added, the sample was mixed and incubated for 30 minutes at room temperature before adding 5 μl of acceptor beads (PY30 coated beads (Perkin Elmer Life Science) final concentration 10 μg/ml) in stop buffer. The samples were incubated for 60 minutes at room temperature and the signal per well was read on AlphaQuest or Envision reader (Perkin Elmer Life Science). Phosphorylated substrate results in binding of the PY30 antibody and association of the donor and acceptor beads such that signal correlates with kinase activity. The signal vs. compound concentration was used to determine the IC50.
The c-kit enzyme used in the above assay was either obtained from Cell Signaling Technology (Cat. #7754) or was prepared as follows: A plasmid encoding kit (DNA and encoded protein sequences shown below) was engineered using common polymerase chain reaction (PCR) methods. Complementary DNA cloned from various human tissues were purchased from Invitrogen, and these were used as substrates in the PCR reactions. Specific custom synthetic oligonucleotide primers were designed to initiate the PCR product, and also to provide the appropriate restriction enzyme cleavage sites for ligation with the plasmids. […]

[2] = test system: BaF3-FL KIT D816V or BaF3-FL KIT V560G/D816V cell line; assay: Cell-based assays of c-Kit mutant kinase activity (cell proliferation, ATPlite); settings: at least one of the c-kit cell assays of Example 7
Protocol: The c-Kit mutant D816V inhibitors were assessed using an engineered BaF3-FL KIT D816V or BaF3-FL KIT V560G/D816V cell line. The BaF3-FL KIT D816V cell lines were created by introduction of KIT mutant (D816V) full length constructs that render the cells dependent on the introduced kinase for growth. Inhibitors of c-Kit mutant D816V kinase reduce or eliminate the mediated c-kit mutant D816V kinase activation, resulting in reduced cell proliferation of the BaF3-FL Kit mutant D816V cells. This inhibition is measured by the effect of compound concentration on cell growth to assess IC50 values. BaF3-FL KIT D816V cells were seeded at 1×10^4 cells per well of a 96 well cell culture plate in 50 μl of cell culture medium of RPMI Medium 1× (Invitrogen #11875-093) supplemented with 10% FBS (Invitrogen #10438), 1% Non Essential Amino Acids (Invitrogen #11140), 1% Penicillin Streptomycin (Invitrogen #15140), 1% L-Glutamine (Invitrogen #25030-081). Compounds were dissolved in DMSO at a concentration of 5 mM and were serially diluted 1:3 for a total of eight points and added to the cells to a final maximum concentration of 10 μM in 100 μl cell culture medium (final concentration 0.2% DMSO). Cells were also treated with Dasatinib as a positive control. The cells were incubated at 37° C., 5% CO2 for three days. ATPlite Buffer (Perkin Elmer #6016739) and substrate were equilibrated to room temperature, and enzyme/substrate Recombinant Firefly Luciferase/D-Luciferin was reconstituted. The cell plates were equilibrated to room temperature for 30 minutes, then lysed by addition of 25 μL per well of the ATPlite Reagent. The plate was mixed for 5 minutes on a plate shaker to lyse the cells. The plates were read on a Tecan Safire using Luminescence protocol modified to read 0.1s per well. The luminescence reading assesses the ATP content, which correlates directly with cell number such that the reading as a function of compound concentration is used to determine the IC50 value.
Plasmids P75635 and P75565 were engineered for mammalian cell expression. In both plasmids, full-length human v-kit Hardy-Zuckerman 4 feline sarcoma viral oncogene homolog gene (NCBI accession NM_000222, KIT, residues M1-V976) was subcloned into the pCI-Neo vector (Promega E1841). Plasmid P75635 contains the mutation of residue Aspartic acid 816 to Valine. Plasmid P75565 contains the double mutation of residues Valine 560 to Glycine and Aspartic acid 816 to Valine. The pCI-neo Mammalian Expression Vector carries the human cytomegalovirus (CMV) immediate-early enhancer/promoter region to promote constitutive expression of KIT and contains the neomycin phosphotransferase gene, a selectable marker.
It is understood that the results of these assays may vary as assay conditions are varied. Inhibition levels determined under the conditions described herein represent a relative activity for the compounds tested under the specific conditions employed. The cell based assays are likely to show variability due to the complexity of the system and the sensitivity thereof to any changes in the assay conditions. […] In some instances, the compounds were not tested in all of the assays, or assay results were not valid.

[3] = biological target: c-kit mutant D816V (Homo sapiens (Human), UniProt P10721, D816V/DEL694-753); assay: c-Kit mutant D816V biochemical assay (AlphaScreen kinase activity)
Sequence of c-kit mutant D816V (P10721 other isoform, or with tags, fused parts or gaps D816V/del 694-753): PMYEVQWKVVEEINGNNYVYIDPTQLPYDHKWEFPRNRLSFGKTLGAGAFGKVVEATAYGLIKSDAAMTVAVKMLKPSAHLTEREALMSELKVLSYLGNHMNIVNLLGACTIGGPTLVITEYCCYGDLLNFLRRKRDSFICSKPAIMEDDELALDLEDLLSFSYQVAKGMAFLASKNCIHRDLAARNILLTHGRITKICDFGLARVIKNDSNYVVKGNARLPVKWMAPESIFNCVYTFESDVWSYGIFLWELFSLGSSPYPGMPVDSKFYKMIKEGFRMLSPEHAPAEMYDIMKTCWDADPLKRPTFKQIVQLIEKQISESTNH
Protocol: The c-kit mutant D816V (or kinase domain thereof) is an active kinase in AlphaScreen. IC50 values are determined with respect to inhibition of c-Kit mutant D816V kinase activity, where inhibition of phosphorylation of a peptide substrate is measured as a function of compound concentration. Compounds to be tested were dissolved in DMSO to a concentration of 30 mM. These were diluted […] of DMSO (4 mM) and 1 μl was added to an assay plate. These were then serially diluted 1:3 (50 μl to […] DMSO) for a total of 8 points. Plates were prepared such that each kinase reaction is […] in 1× kinase buffer (25 mM HEPES, pH 7.2, 8 mM MgCl2, 2 mM MnCl2, 50 mM NaCl, 0.01% Brij, 1 mM DTT, 0.01% BSA), 5% DMSO and 10 μM ATP. Substrate was 30 nM biotin-(E4Y)10 (EMD Millipore, Cat#12-440). C-kit mutant D816V kinase was at 0.75 ng per sample. After incubation of the kinase reaction for 30 minutes at room temperature, 5 μl of donor beads (Streptavidin coated beads (Perkin Elmer Life Science) final concentration 7.5 μg/ml) in stop buffer (25 mM Hepes pH 7.5, 100 mM EDTA, 0.01% BSA) was added, the sample was mixed and incubated for 30 minutes at room temperature before adding […] of acceptor beads (PY30 coated beads (Perkin Elmer Life Science) final concentration 7.5 μg/ml) in stop buffer. The samples were incubated for 60 minutes at room temperature and the signal per well was read on EnVision reader. Phosphorylated substrate results in binding of the PY30 antibody and association of the donor and acceptor beads such that signal correlates with kinase activity. The signal vs. compound concentration was used to determine the IC50.
Recombinant c-kit mutant D816V (residues 551-934, kinase insertion domain residues 694-753 deleted) with a 6×-histidine N-terminal tag (SEQ ID NO: 3) was expressed in E. coli Arctic Express (DE3) RIL (Stratagene). Cells were grown in Terrific Broth (TB) media to an OD600 of 0.6 at 37° C. at which temperature was reduced to 10° C., protein was induced with 1.0 mM IPTG for 18 hours and harvested by centrifugation at 8000×g for 30 minutes. Cells were re-suspended in 0.1M KPO4 pH 8.0, 250 mM NaCl, 10% Glycerol, 0.75% NP-40, 25 mM Imidazole, 5 mM BME with 0.2 mg/ml Lysosyme, 2.0 mM PMSF, 25 μg/ml DNAse I, incubated in ice for 30 minutes and lyzed with a cell disruptor (MicroFluidics). The lysate was clarified by centrifugation at 30,000×g for 2 hours. The protein was captured with Talon resin (Clontech). Contaminating proteins were washed off with 25 mM Tris-HCl pH 8.3, 250 mM NaCl, 15% Glycerol, 1% Triton X-100, and protein eluted using 100 mM EDTA. The protein was further purified using Gel Filtration column 26/600 Superdex 300 (GE) in 50 mM Tris-HCl , pH 8.0, 250 mM NaCl, 15% Glycerol, 5 mM BME. The protein was aliquoted and flash-frozen in liquid Nitrogen.

Sequence of c-Kit kinase (P10721 26-976): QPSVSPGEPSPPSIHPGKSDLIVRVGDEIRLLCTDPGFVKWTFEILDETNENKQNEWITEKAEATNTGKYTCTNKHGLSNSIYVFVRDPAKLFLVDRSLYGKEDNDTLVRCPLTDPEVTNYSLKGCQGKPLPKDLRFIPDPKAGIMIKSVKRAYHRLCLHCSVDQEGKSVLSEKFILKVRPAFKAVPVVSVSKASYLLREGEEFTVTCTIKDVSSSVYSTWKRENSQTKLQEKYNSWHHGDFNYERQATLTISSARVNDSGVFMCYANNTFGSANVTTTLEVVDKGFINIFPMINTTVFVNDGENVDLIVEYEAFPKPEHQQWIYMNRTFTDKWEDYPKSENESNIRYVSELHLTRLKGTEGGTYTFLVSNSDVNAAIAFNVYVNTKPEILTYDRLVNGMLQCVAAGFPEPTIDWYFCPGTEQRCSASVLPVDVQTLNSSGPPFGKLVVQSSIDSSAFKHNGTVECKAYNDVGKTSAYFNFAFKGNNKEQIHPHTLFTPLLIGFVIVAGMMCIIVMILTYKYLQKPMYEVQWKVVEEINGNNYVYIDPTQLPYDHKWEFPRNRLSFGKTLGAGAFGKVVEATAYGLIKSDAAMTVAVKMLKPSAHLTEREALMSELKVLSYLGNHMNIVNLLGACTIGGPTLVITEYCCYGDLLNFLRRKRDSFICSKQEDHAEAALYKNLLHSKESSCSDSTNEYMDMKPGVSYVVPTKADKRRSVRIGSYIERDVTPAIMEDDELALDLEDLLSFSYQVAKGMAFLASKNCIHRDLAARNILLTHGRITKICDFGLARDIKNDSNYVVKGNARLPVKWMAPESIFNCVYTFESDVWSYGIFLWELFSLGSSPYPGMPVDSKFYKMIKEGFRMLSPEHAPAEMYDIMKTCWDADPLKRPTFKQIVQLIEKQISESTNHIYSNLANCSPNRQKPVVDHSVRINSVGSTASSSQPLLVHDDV

**Q.** Cc1[nH]c(C2CCN(c3ncnc4[nH]c(-c5ccncc5)cc34)CC2)nc1-c1ccccc1 [P-3001, 4-[4-(5-methyl-4-phenyl-1H-imidazol-2-yl)-1-piperidyl]-6-(4-pyridyl)-7H-pyrrolo[2,3-d]pyrimidine] was tested. Which IC50 [1] did it give?
**A.** Its IC50 is 0.0001 to 1 µM.

**Q.** What about the pIC50 [2] of the same compound?
**A.** Its pIC50 is > 5.00.

**Q.** For Cc1nc(C2CCN(c3ncnc4[nH]c(-c5cccc(Cl)c5)cc34)CC2)[nH]c1-c1ccccc1 [P-3082, 6-(3-chlorophenyl)-4-[4-(4-methyl-5-phenyl-1H-imidazol-2-yl)-1-piperidyl]-7H-pyrrolo[2,3-d]pyrimidine], which IC50 [3] is on record?
**A.** The IC50 was 0.0001 to 1 µM.

**Q.** What about the pIC50 [2] of the same compound?
**A.** The pIC50 was > 5.00.

**Q.** For COc1cc(-c2[nH]c(C3CCN(c4ncnc5[nH]c(-c6ccc(F)cc6)cc45)CC3)nc2C)ccc1C [P-3103, 6-(4-fluorophenyl)-4-[4-[5-(3-methoxy-4-methyl-phenyl)-4-methyl-1H-imidazol-2-yl]-1-piperidyl]-7H-pyrrolo[2,3-d]pyrimidine], which IC50 [1] is on record?
**A.** The IC50 was 1 to 10 µM.

**Q.** And the IC50 [3]?
**A.** Its IC50 is 0.0001 to 1 µM.

**Q.** Which results are given for COc1ccc(-c2[nH]c(C3CCN(c4ncnc5[nH]c(-c6ccc(F)cc6)cc45)CC3)nc2C(F)(F)F)cc1 [P-3147, 6-(4-fluorophenyl)-4-[4-[5-(4-methoxyphenyl)-4-(trifluoromethyl)-1H-imidazol-2-yl]-1-piperidyl]-7H-pyrrolo[2,3-d]pyrimidine]?
**A.** IC50 [3]: 0.0001 to 1 µM; pIC50 [2]: > 5.00

**Q.** Which IC50 [3] does the source give for Cc1cc2c(N3CCC(C)(c4nc(C)c(-c5ccc(Cl)cc5)[nH]4)CC3)ncnc2[nH]1 [P-3174, 4-[4-[5-(4-chlorophenyl)-4-methyl-1H-imidazol-2-yl]-4-methyl-1-piperidyl]-6-methyl-7H-pyrrolo[2,3-d]pyrimidine] here?
**A.** The IC50 was 0.0001 to 1 µM.

**Q.** What about the pIC50 [2] of the same compound?
**A.** Its pIC50 is > 5.00.
